From patent US20260137698A1, “CYCLIN-DEPENDENT KINASE 7 INHIBITORS” (JOINT STOCK COMPANY «BIOCAD», priority 2022, published 2026) come the findings set out here.

One series addresses CDK7/Cyclin H/MNAT1 (Homo sapiens, UniProt P50613). The series can be described thus: Inhibition of CDK7/Cyclin H/MNAT1 kinase activity (ADP-Glo). The series is classed as biochemical. The settings on record: mean value from several measurements; read-out: IC50 CDK7/Cyclin H/MNAT. On the procedure: (§1) Measurements were carried out in a 5 μl reaction volume using a 384-well plate (Corning Inc., order no. 4513). The analyzed substances were titrated from 50 μM in increments of 4 at 11 concentration points in a normal strength kinase buffer A (Thermo Fisher Scientific Inc, cat. no. PV3189) supplemented with DTT (Sigma, orde. no. 646563-10X.5ML) and prepared with water (Panreac, order no. 701074). Kinase was diluted in an analogous buffer, mixed with test compounds in plate wells and preincubated for 10 minutes at 25° C. Following incubation, a mixture of reaction substrate (CDKtide (SignalChem, order no. C06-58) or Histone H1 (SignalChem, order no. H10-54N) or PDKtide (SignalChem, order no. P10-58) and ATP (SignalChem, order no. V915B) prepared on a normal strength kinase buffer A was added. 1% solution of dimethyl sulfoxide (DMSO) (Sigma-Aldrich, order no. D2438) in the reaction volume was used as a negative control. The final concentrations of all reaction components are shown in Table 5. The plate was centrifuged at 400 rcf (Eppendorf, 5804 R) for 1 minute and incubated for 40-60 minutes at 25° C. The amount of ATP consumed in the kinase reaction was then measured using the ADP-Glo™ detection system. Luminescence signal was measured using Spark 20M tablet multifunction reader (Tecan Group Ltd, Switzerland). IC50 value was calculated using Magellan 7.2 (Tecan Group Ltd, Switzerland) by approximating experimental points by four-parameter model with the optimization by Levenberg-Marquardt:
(§2) [formula] • where A is the upper asymptote; D is the lower asymptote; C is IC50, half-maximal inhibitory concentration of kinase, nM; B is the curvature (slope).

A further series addresses CDK2/Cyclin A (Homo sapiens, UniProt P24941). The series can be described thus: Inhibition of CDK2/Cyclin A kinase activity (ADP-Glo). The series is classed as biochemical. To be noted: mean value from several measurements; read-out: IC50 CDK2/Cyclin A. As to the method: as §1, §2
For orientation: ADP-Glo first removes unused ATP, then detects ADP through luciferase.

For a further series, the target named is CDK9/Cyclin K (Homo sapiens, UniProt P50750). The series can be described thus: Inhibition of CDK9/Cyclin K kinase activity (ADP-Glo). It is filed as biochemical. The settings on record: mean value from several measurements; read-out: IC50 CDK9/Cyclin K. As to the method:
as §1, §2

Series [1] deals with MDA-MB-468 (triple negative breast cancer). In words: Antiproliferative assay on MDA-MB-468 cells (AlamarBlue, 96 h). The series is classed as cell-based. To be noted: Homo sapiens, mean value from several measurements. On the procedure:
The antiproliferative activity of CDK7 inhibitors according to the present invention was evaluated in a cell test using continuous cell cultures: MDA-MB-468 (triple negative breast cancer, ATCC® HTB-132™) and NCl-H82 (small cell lung cancer, ATCC® HTB-175™) using a viable AlamarBlue dye (Thermo Fisher Scientific Inc, order no. DAL1100). The cells were grown in DMEM (PanEco, order no. C330π) and RPMI-1640 (PanEco, order no. C330π), respectively. The basal growth medium was enriched with L-glutamine at a concentration of 2 mM (PanEco, order no. Φ032) and 10% fetal bovine serum (Gibco, order no. 16140-071). The night before measurement, MDA-MB-468 adherent cells were detached from plastic with a solution of trypsin-EDTA (PanEco, order no. Π039π), the solution was then inactivated by a DMEM complete medium, centrifuged at 1000 RPM (Eppendorf, 5804 R), a suspension of cells was prepared in a DMEM complete medium, introduced into 96-well culture plates (Corning Inc, order no. 3599) at 8×10^3 cells in 100 μl of medium per well. The next day, test compounds were dissolved in DMSO and diluted with a DMEM complete medium to a final concentration ranging from 50 μM to 10 pM. Diluted compounds in a volume of 50 μl were introduced into the plate wells with cells in triplicates (the final concentration of DMSO was no more than 1%) and incubated at 37° C. in an incubator with 5% CO2 for 96 hours. NCl-H82 suspension cell line was prepared on the day of the analysis. 10×10^3 cells in 100 μl of an RPMI-1640 complete medium were added to each well of a 96-well plate. The procedure for sample dilution is as described above. Cells with test compounds were incubated at 37° C. in an incubator with 5% CO2 for 120 hours. Following incubation, […] of AlamarBlue reagent (Thermo Fisher Scientific Inc., order no. DAL1100) was added to the wells, the contents of the plates were stirred in an orbital shaker (Biosan, Latvia), then further incubated for 5.5-6 hours at 37° C. in an incubator with 5% CO2. The number of viable cells was detected using the Infinite M200Pro microplate spectrophotometer (Tecan Group Ltd, Switzerland) by way of measuring a fluorescent signal at an excitation wavelength (λEx) of 540 nm and an emission wavelength (λEm) of 590 nm.
IC50 value was calculated using the Magellan software (Tecan Group Ltd, Switzerland) by approximating experimental points by four-parameter model with the optimization by Levenberg-Marquardt: […]
A general note: The colour change of resazurin is a common sign of viable cells or microbes.

The nature of series [2]: General cytotoxicity on primary differentiated HepaRG cells (72 h). The series is classed as cell-based. The settings on record: human, general toxicity, mean value from several measurements. The source says:
General cytotoxicity of CDK7 inhibitors according to the present invention was investigated using primary differentiated HepaRG cells (Biopredic Int, order no. HPR101). A week before the measurement, the cells were thawed and maintained in Basal hepatic cell medium (Biopredic Int, order no. MIL700079) supplemented with HepaRG maintenance/metabolism medium supplement with antibiotics (Biopredic Int, order no. ADD620C). The medium in vials with cells was changed every 2-3 days. The night before the test, the cells were plated in wells of 96-well plates (Corning Inc., order no. 3599) at 25×10^3 cells in 100 μl of medium per well. The next day, test compounds were introduced into plate wells with cells, untitrated at a concentration ranging from 200 μM to 0.2 nM, and incubated for 72 hours. Cell viability was assessed as described above.

CDK7/Cyclin H/MNAT1, sequence (P50613 whole entry): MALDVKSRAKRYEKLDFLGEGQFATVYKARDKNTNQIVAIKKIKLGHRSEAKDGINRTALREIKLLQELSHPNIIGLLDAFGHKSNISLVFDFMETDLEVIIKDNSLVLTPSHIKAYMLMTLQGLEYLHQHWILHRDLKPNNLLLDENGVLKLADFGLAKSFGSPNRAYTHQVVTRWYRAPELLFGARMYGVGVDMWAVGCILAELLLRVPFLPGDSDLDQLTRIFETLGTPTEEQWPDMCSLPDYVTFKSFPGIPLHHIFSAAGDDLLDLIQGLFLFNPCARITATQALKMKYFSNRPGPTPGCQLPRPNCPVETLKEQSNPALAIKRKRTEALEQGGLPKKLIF
CDK7/Cyclin H/MNAT1, sequence (P51946 whole entry partner): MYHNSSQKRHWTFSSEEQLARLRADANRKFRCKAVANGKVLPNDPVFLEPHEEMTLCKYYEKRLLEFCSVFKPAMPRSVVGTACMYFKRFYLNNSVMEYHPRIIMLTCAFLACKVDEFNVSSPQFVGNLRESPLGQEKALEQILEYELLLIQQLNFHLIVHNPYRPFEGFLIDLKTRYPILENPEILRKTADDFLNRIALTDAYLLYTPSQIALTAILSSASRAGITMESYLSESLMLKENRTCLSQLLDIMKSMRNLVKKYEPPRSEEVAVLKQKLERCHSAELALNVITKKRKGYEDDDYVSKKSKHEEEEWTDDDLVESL
CDK7/Cyclin H/MNAT1, sequence (P51948 whole entry partner): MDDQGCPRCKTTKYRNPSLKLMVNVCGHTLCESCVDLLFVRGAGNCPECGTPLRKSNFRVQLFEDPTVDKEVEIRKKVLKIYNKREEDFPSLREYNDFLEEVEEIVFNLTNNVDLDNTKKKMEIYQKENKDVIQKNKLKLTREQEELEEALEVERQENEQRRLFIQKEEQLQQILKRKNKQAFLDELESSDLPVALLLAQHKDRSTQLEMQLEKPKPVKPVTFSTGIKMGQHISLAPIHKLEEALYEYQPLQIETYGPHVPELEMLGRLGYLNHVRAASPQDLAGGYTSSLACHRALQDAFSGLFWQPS
CDK9/Cyclin K, sequence (P50750 whole entry): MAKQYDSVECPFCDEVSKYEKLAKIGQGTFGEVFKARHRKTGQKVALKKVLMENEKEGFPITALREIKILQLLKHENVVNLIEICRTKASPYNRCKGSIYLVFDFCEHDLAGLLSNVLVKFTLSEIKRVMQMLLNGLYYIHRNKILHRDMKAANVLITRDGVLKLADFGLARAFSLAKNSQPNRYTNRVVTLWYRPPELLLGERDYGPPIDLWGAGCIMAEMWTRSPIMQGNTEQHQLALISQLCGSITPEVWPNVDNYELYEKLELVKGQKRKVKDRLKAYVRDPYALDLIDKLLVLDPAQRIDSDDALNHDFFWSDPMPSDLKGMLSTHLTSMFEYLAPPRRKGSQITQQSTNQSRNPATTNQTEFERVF
CDK9/Cyclin K, sequence (O75909 whole entry partner): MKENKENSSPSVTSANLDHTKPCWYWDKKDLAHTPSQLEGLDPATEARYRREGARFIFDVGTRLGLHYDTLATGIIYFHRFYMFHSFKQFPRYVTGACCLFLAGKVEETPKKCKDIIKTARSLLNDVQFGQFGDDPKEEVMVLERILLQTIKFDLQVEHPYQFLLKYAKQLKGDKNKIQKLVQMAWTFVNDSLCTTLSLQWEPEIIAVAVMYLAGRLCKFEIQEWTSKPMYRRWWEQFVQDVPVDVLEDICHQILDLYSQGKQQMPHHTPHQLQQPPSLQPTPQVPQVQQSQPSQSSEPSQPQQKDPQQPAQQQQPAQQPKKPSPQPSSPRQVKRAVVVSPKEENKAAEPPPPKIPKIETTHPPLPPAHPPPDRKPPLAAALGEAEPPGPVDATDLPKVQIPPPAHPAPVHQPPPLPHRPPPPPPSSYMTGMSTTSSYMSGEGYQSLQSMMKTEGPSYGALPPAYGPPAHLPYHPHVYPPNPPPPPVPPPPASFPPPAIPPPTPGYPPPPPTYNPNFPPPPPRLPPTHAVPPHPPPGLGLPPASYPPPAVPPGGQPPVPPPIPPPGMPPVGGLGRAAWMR

Take `O=C(c1cc(-c2nc(N[C@H]3CCCNC3)ncc2C(F)(F)F)c[nH]1)N1CCOCC1` [CDK7_849, 4-[5-(morpholine-4-carbonyl)-1H-pyrrol-3-yl]-N-[(3S)-piperidin-3-yl]-5-(trifluoromethyl) pyrimidin-2-amine]: the IC50 on CDK7/Cyclin H/MNAT1 was less than 5 nM; on CDK2/Cyclin A, greater than 200 nM; on CDK9/Cyclin K, 50 to 200 nM; in series [1] it was 10 to 100 nM. This compound showed a CC50 at 72 h in series [2] of 500 to 2000 nM.
For `FC(F)(F)c1cnc(N[C@H]2CCCNC2)nc1-c1cc[nH]c1` [CDK7_972, N-[(3S)-piperidin-3-yl]-4-(1H-pyrrol-3-yl)-5-(trifluoromethyl)py-rimidin-2-amine], in that order: 5 to 50 nM, greater than 200 nM, 50 to 200 nM, 100 to 1000 nM and 500 to 2000 nM.
Consider `O=C(NC1CCC(O)CC1)c1cc(-c2nc(N[C@H]3CCCNC3)ncc2C(F)(F)F)c[nH]1` (stereo partly drawn) [CDK7_851, N-(4-hydroxycyclo-hexyl)-4-(2-{[(3S)-piperidin-3-yl]amino}-5-(trifluoromethyl)pyrimidin-4-yl)-1H-pyrrole-2-carboxamide], for which the IC50 on CDK7/Cyclin H/MNAT1 was 5 to 50 nM; on CDK2/Cyclin A it was greater than 200 nM; at CDK9/Cyclin K, 50 to 200 nM; in series [1] it was greater than 1000 nM. In series [2], this compound returned a CC50 at 72 h greater than 2000 nM.
The corresponding values for `O=C(NCc1ccccc1)c1cc(-c2nc(N[C@H]3CCCNC3)ncc2C(F)(F)F)c[nH]1` [CDK7_997, N-benzyl-4-(2-{[(3S)-piperidin-3-yl]amino}-5-(trifluoromethyl)pyrimidin-4-yl)-1H-pyrrole-2-carboxamide] are 5 to 50 nM, greater than 200 nM, 50 to 200 nM, 100 to 1000 nM and 500 to 2000 nM.
For `O=C(Nc1ccncc1)c1cc(-c2nc(N[C@H]3CCCNC3)ncc2C(F)(F)F)c[nH]1` [CDK7_836, 4-(2-{[(3S)-piperidin-3-yl]amino}-5-(trifluoromethyl)pyrimidin-4-yl)-N-(pyridin-4-yl)-1H-pyrrole-2-carboxamide], the IC50 was 5 to 50 nM at CDK7/Cyclin H/MNAT1, greater than 200 nM at CDK2/Cyclin A, 50 to 200 nM at CDK9/Cyclin K and 100 to 1000 nM in series [1]. This compound gave a half-maximal cytotoxic concentration (CC50) at 72 h in series [2] of 500 to 2000 nM.
For `CN1CCN(C(=O)c2cc(-c3nc(N[C@H]4CCCNC4)ncc3C(F)(F)F)c[nH]2)CC1` [CDK7_539, 4-[5-(4-methylpiperazine-1-carbonyl)-1H-pyrrol-3-yl]-N-[(3S)-piperidin-3-yl]-5-(trifluoromethyl) pyrimidin-2-amine], in that order: 5 to 50 nM, greater than 200 nM, 50 to 200 nM, 100 to 1000 nM and greater than 2000 nM.
The corresponding values for `NC(=O)c1cc(-c2nc(N[C@H]3CCCNC3)ncc2C(F)(F)F)c[nH]1` [CDK7_537, 4-(2-{[(3S)-piperidin-3-yl]amino}-5-(trifluoromethyl)pyrimidin-4-yl)-1H-pyrrole-2-carboxamide] are 5 to 50 nM, greater than 200 nM, 5 to 50 nM, 100 to 1000 nM and 100 to 500 nM.
Regarding `O=C(Nc1ccccc1)c1cc(-c2nc(N[C@H]3CCCNC3)ncc2C(F)(F)F)c[nH]1` [CDK7_538, N-phenyl-4-(2-{[(3S)-piperidin-3-yl]amino}-5-(trifluoromethyl)pyrimidin-4-yl)-1H-pyrrole-2-carboxamide], the IC50 is 5 to 50 nM at CDK7/Cyclin H/MNAT1, greater than 200 nM on CDK2/Cyclin A, 50 to 200 nM at CDK9/Cyclin K and 100 to 1000 nM in series [1]. This compound showed a CC50 at 72 h in series [2] of 500 to 2000 nM.
The corresponding values for `N#Cc1ccc(NC(=O)c2cc(-c3nc(N[C@H]4CCCNC4)ncc3C(F)(F)F)c[nH]2)cc1` [CDK7_837, N-(4-cyanophenyl)-4-(2-{[(3S)-piperidin-3-yl]amino}-5-(trifluoromethyl)pyrimidin-4-yl)-1H-pyrrole-2-carboxamide] are 50 to 200 nM, greater than 200 nM, greater than 200 nM, 100 to 1000 nM and 500 to 2000 nM.
The corresponding values for `CN(Cc1ccccc1)C(=O)c1cc(-c2nc(N[C@H]3CCCNC3)ncc2C(F)(F)F)c[nH]1` [CDK7_998, N-benzyl-N-methyl-4-(2-{[(3S)-piperidin-3-yl]amino}-5-(trifluoromethyl)pyrimidin-4-yl)-1H-pyrrole-2-carboxamide] are 5 to 50 nM, greater than 200 nM, greater than 200 nM, greater than 1000 nM and greater than 2000 nM.
For `O=C(Nc1ncc[nH]1)c1cc(-c2nc(N[C@H]3CCCNC3)ncc2C(F)(F)F)c[nH]1` [CDK7_833, N-(1H-imidazol-2-yl)-4-(2-{[(3S)-piperidin-3-yl]amino}-5-(trifluoromethyl)pyrimidin-4-yl)-1H-pyrrole-2-carboxamide], in that order: 5 to 50 nM, greater than 200 nM, 50 to 200 nM, 100 to 1000 nM and 500 to 2000 nM.
In the case of `CS(=O)(=O)CCNC(=O)c1cc(-c2nc(N[C@H]3CCCNC3)ncc2C(F)(F)F)c[nH]1` [CDK7_848, N-(2-methanesulfon-ylethyl)-4-(2-{[(3S)-piperidin-3-yl]amino}-5-(trifluoromethyl)pyrimidin-4-yl)-1H-pyrrole-2-carboxamide], the IC50 is 5 to 50 nM on CDK7/Cyclin H/MNAT1, greater than 200 nM on CDK2/Cyclin A, 5 to 50 nM on CDK9/Cyclin K and greater than 1000 nM in series [1]. Further, the CC50 at 72 h in series [2] was greater than 2000 nM.
For the compound `CNC(=O)c1cc(-c2nc(N[C@H]3CCCNC3)ncc2C(F)(F)F)c[nH]1` [CDK7_846, N-methyl-4-(2-{[(3S)-piperidin-3-yl]amino}-5-(trifluoromethyl)pyrimidin-4-yl)-1H-pyrrole-2-carboxamide], the IC50 was 5 to 50 nM at CDK7/Cyclin H/MNAT1, greater than 200 nM on CDK2/Cyclin A, 5 to 50 nM on CDK9/Cyclin K and 10 to 100 nM in series [1]. Besides, in series [2], the CC50 at 72 h lay in the range of 500 to 2000 nM.

By CC50 is commonly meant the concentration giving 50% cytotoxicity.
